Measurements published in patent US4250259A, “Microbiological production of ketones from C3 -C6 secondary alcohols” (priority 1979, dated 1981).

Columns and labels:
[1] = tested on: secondary alcohol dehydrogenase (SADH), cell-free soluble extract; experiment: oxidation of sec-alcohols by cell-free soluble extracts; type: biochemical, Pseudomonas sp. CRL 75 (ATCC 21,439); settings: for Oxidation Rate, sec-alcohol to corresponding ketone: soluble crude extract, grown on methanol
Experimental: (§1) To prepare the cell-free secondary alcohol dehydrogenase (SADH) system, the washed cells were disrupted with a Wave Energy Ultrasonic Oscillator, Model W201 (Wave Energy System, Inc., Newtown, Pa.) and centrifuged at 20,000×g. for 30 minutes. […] The enzyme activity was measured with a fluorescence spectrophotometer (Perkin Elmer, Model MPF 44A) by following the formation of reduced NAD (EX 340 nm, Em 460 nm). The formation of reduced NAD was also followed with an absorption spectrophotometer at 340 nm. The assay system (3 ml.) contained: potassium phosphate buffer pH 7.0; 150 μmol.; NAD 1 μmol.; a given amount of enzyme preparation; and secondary alcohol 10 μmol. The reaction was started by the addition of substrate. One unit of enzyme activity represents the reduction of one μmole NAD per minute. Protein concentrations were determined by the Lowry method (J. Biol. Chem., 193: 255-275 (1951)).
(§2) The experimental procedure for the tests reported in Table VIII were as follows: 1 mg protein of crude extract was added into a 0.5 ml. 0.05 M phosphate buffer (pH 7.0) in a 10-ml. vial. […] The reaction mixture was incubated at 30° C. on a water bath. A 3 μl sample was removed with a syringe at 15 min. of incubation and was assayed with g.l.c. Catalytic activity was also assayed by fluorescence spectrophotometry.

[2] = tested on: secondary alcohol dehydrogenase (SADH), cell-free soluble extract; experiment: as above; type: biochemical, Methylococcus capsulatus CRL M1 (NRRL B-11,219); settings: for Oxidation Rate, sec-alcohol to corresponding ketone: soluble crude extract, grown on methanol
Experimental: as §1, §2

[3] = tested on: Torulopsis sp. Strain A1 (NRRLY-11,419); experiment: sec-alcohols to ketones by cell suspensions of yeasts; type: cell-based
[4] = tested on: Methanomonas methylovora ATCC 21852 (Obligate); experiment: sec-alcohols to ketones by resting cell suspensions; type: cell-based
Experimental: (§3) The pH of the nutrient medium was adjusted to 7.0 by the addition of acid or base and 50 ml. samples of the nutrient medium were charged into a plurality of 300 ml. shaker flasks. The shaker flasks were inoculated with an inoculating loop of cells from an agar plate containing homogeneous colonies of the microorganisms on the plate (the purity of the isolates was confirmed by microscopic examination). The isolates had been maintained on methanol (0.4% V/V) agar plates or on agar plates under an atmosphere of methane and air having a 1:1 V/V gas ratio which had been transferred every two weeks. For growth on methanol, the medium was supplemented with 0.4% methanol. For growth on methane, the gaseous phase of the inoculated flasks was replaced with a gas mixture comprised of methane and air having a ratio of 1:1 on a V/V basis. The inoculated flasks were sealed air-tight and were incubated on a rotary shaker of orbital radius 2.5 cm. at 250 rpm and at 30° C. for two days until turbidity in the medium had developed. The cells were harvested by centrifugation at 10,000×g. at 4° C. for 30 minutes. The cell pellet was washed twice with a 0.05 M phosphate buffer at a pH of 7.0 (containing 0.02 M MgCl2). The washed cells were then suspended in a 0.05 M phosphate buffer at pH 7.0.
(§4) A 0.5 ml. sample of each washed cell suspension (2 mg. cells) was put into 10 ml. vials at 4° C. which were sealed with a rubber cap. The gaseous phase of the vials was removed with vacuum and then was replaced with a gas mixture of the substrate reactant (i.e., alkane or secondary alcohol) and oxygen at a 1:1 V/V ratio. (In the case of a liquid substrate, i.e., secondary alcohol, 10 μl of the substrate was put in the 10 ml. vials). […] Samples of product (1-3 μl) were withdrawn periodically with a microsyringe and the products were analyzed by gas chromatography (ionization flame detector column).
(§5) The procedure in Example 1 was repeated except that a plurality of methanol-utilizing methylotrophic microorganisms were each aerobically grown in a methanol-containing nutrient medium instead of a methane-containing medium. The nutrients in the medium were the same as indicated in Example 1 except that 0.4% V/V methanol was used as the alcohol dehydrogenase inducer and as the major carbon and energy source for growth. The cells were harvested and washed as described in Example 1. The resting microbial cells of the induced methanol-grown methanol-utilizing methylotrophic microorganisms were then contacted with C3 -C6 secondary alcohols in a buffered solution by the procedure of Example 1.
(§6) The procedure in Example 1 was repeated except that the methylotrophic microorganisms were each aerobically grown in an alcohol dehydrogenase-inducing growth medium containing methylamine or methyl formate as the alcohol dehydrogenase enzyme inducer and growth substrate instead of methane. The nutrients in the medium were the same as indicated in Example 1 except that 0.4% V/V of the alcohol dehydrogenase-inducer growth substrate was used as the major carbon and energy source. The cells were harvested and washed as described in Example 1. The resting microbial cells were then contacted with C3 -C6 secondary alcohols in a buffered solution by the conversion procedure of Example 1.

[5] = tested on: Pseudomonas sp. ATCC 21438 (Facultative); experiment: as above; type: cell-based
Experimental: as §3, §4, §5, §6

[6] = tested on: cell extracts (NAD+-dependent secondary alcohol dehydrogenase); experiment: sec-alcohols to methyl ketones by cell extracts of yeasts, gas chromatography; type: biochemical, Candida utilis ATCC 26,387; settings: grown on methanol
Experimental: The supernantant liquid was termed the crude extracts.
The reaction mixture, in a total of 3.0 ml., contained 50 mM phosphate buffer, pH 7.0, 20 μmole NAD^+, cell extracts (1 ml.).
The ketone product obtained from oxidation of sec-alcohols by cell extracts of organisms were estimated by flame ionization gas chromatography by using a stainless steel column (12 ft. by 1/8 in.) packed with 10% Carbowax 20 M on 80/100 chromosorb w column (Perkin Elmer Corp., Norwalk, Conn.). The column temperature was maintained isothermally at 130° C. and the carrier gas flow was 30 ml. of helium per min. […] The protein content of cell-suspensions was determined by the Lowry et al. method.
NRRL Y-11,328 Torulopsis sp.

[7] = tested on: Candida utilis ATCC 26387; experiment: sec-alcohols to ketones by cell suspensions of yeasts; type: cell-based
[8] = tested on: Pseudomonas sp. ATCC 21439 (Obligate); experiment: sec-alcohols to ketones by resting cell suspensions; type: cell-based; settings: methanol-grown cells
Experimental: as §3, §4, §5

[9] = tested on: Pseudomonas MS ATTC 25262 (Facultative); experiment: as above; type: cell-based; settings: methanol-grown cells
Experimental: as §3, §4, §5

SMILES	Oxidation Rate, sec-alcohol to corresponding ketone [1] [nmole/min/mg protein]	Oxidation Rate, sec-alcohol to corresponding ketone [2] [nmole/min/mg protein]	Conversion Rate, sec-alcohol to corresponding ketone ([3]; Growth Substrate Ethanol)	Conversion Rate, sec-alcohol to corresponding ketone ([3]; Growth Substrate Methanol)	Conversion Rate, sec-alcohol to corresponding ketone ([3]; Growth Substrate Methylamine)	Conversion Rate, sec-alcohol to corresponding ketone ([3]; Growth Substrate Methylformate)	Conversion Rate, sec-alcohol to corresponding ketone ([3]; Growth Substrate Propylamine)	Conversion Rates, sec-alcohol to corresponding ketone ([4]; methanol-grown cells) [μmoles/hr/mg protein]	Conversion Rates, sec-alcohol to corresponding ketone ([4]; methyl formate-grown cells) [μmoles/hr/mg protein]	Conversion Rates, sec-alcohol to corresponding ketone ([4]; methylamine-grown cells) [μmoles/hr/mg protein]	Conversion Rates, sec-alcohol to corresponding ketone ([5]; methanol-grown cells) [μmoles/hr/mg protein]	Conversion Rates, sec-alcohol to corresponding ketone ([5]; methyl formate-grown cells) [μmoles/hr/mg protein]	Conversion Rates, sec-alcohol to corresponding ketone ([5]; methylamine-grown cells) [μmoles/hr/mg protein]	Conversion Rate, sec-alcohol to methyl ketone [6] [μmoles/hr/mg Protein]	Conversion Rate, sec-alcohol to corresponding ketone ([7]; Growth Substrate Ethanol)	Conversion Rate, sec-alcohol to corresponding ketone ([7]; Growth Substrate Methanol)	Conversion Rate, sec-alcohol to corresponding ketone ([7]; Growth Substrate Methylamine)	Conversion Rate, sec-alcohol to corresponding ketone ([7]; Growth Substrate Methylformate)	Conversion Rate, sec-alcohol to corresponding ketone ([7]; Growth Substrate Propylamine)	Conversion Rates, sec-alcohol to corresponding ketone [8] [μmoles/hr/mg protein]	other results
CCC(C)O (centres unmarked) [2-Butanol, 2-butanol]	25.0	2.0	4.7 μmoles/hr/mg of protein	4.9 μmoles/hr/mg of protein	4.5 μmoles/hr/mg of protein	4.9 μmoles/hr/mg of protein	3.8 μmoles/hr/mg of protein	2.5	2.1	3.2	3.2	3.2	2.1	4.92	5.2 μmoles/hr/mg of protein	6.8 μmoles/hr/mg of protein	5.0 μmoles/hr/mg of protein	6.2 μmoles/hr/mg of protein	4.2 μmoles/hr/mg of protein	4.7	Conversion Rate, 2-butanol to 2-butanone ([1]; Growth Substrate CH3 OH): 25.0 nmoles/min/mg protein; Conversion Rate, 2-butanol to 2-butanone ([2]; Growth Substrate CH3 NH2): 1.8 nmoles/min/mg protein; Conversion Rate, 2-butanol to 2-butanone ([2]; Growth Substrate CH3 OH): 2.0 nmoles/min/mg protein; Conversion Rate, 2-butanol to 2-butanone ([2]; Growth Substrate CH4): 3.2 nmoles/min/mg protein; Conversion Rate, 2-butanol to 2-butanone ([2]; Growth Substrate HCOOCH3): 2.0 nmoles/min/mg protein; Conversion Rates, sec-alcohol to corresponding ketone [9]: 3.5 μmoles/hr/mg protein
CCCCC(C)O (centres unmarked) [2-Hexanol, 2-hexanol]	0	0	0.20 μmoles/hr/mg of protein	0.21 μmoles/hr/mg of protein	0.12 μmoles/hr/mg of protein	0.25 μmoles/hr/mg of protein	0.10 μmoles/hr/mg of protein	1.0	0.60	0.09	0.7	0.80	0.07	0.45	0.72 μmoles/hr/mg of protein	0.8 μmoles/hr/mg of protein	0.61 μmoles/hr/mg of protein	0.75 μmoles/hr/mg of protein	0.52 μmoles/hr/mg of protein	0.03	Conversion Rates, sec-alcohol to corresponding ketone [9]: 0.80 μmoles/hr/mg protein
